Results: patent US20150209379A1, “TREATMENT OF PROSTATE CANCER AND HEMATOLOGIC NEOPLASMS” (THOMAS JEFFERSON UNIVERSITY, priority 2012, published 2015)

Tested on: Stat5a/b
Test: Constitutive Stat5a/b phosphorylation in K562 cells (Western blot)
Assay type: cell-based, human
Description: Exponentially growing K562 cells were treated with 5 μM Compound 1, Compound 2 or control for 3 h after which the cells were harvested. Cell pellets were solubilized in lysis buffer [10 mM Tris-HCl (pH 7.6), 5 mM EDTA, 50 mM sodium chloride, 30 mM sodium pyrophosphate, 50 mM sodium fluoride, 1 mM sodium orthovanadate, 1% Triton X-100, 1 mM phenylmethylsulfonyl fluoride, 5 μg/mlaprotinin, 1 μg/ml pepstatin A, and 2 μg/ml leupeptin], rotated end-over-end at 4° C. for 60 min, and insoluble material was pelleted at 12,000×g for 30 min at 4° C. The protein concentrations of clarified cell lysates were determined by simplified Bradford method (Bio-Rad Laboratories, Hercules, Calif.). Western blotting of the lysates was carried out using, as primary antibodies, the following antibodies at the following concentrations: anti-phosphotyrosine-Stat5a/b (Y694/Y699) mAb (1 μg/ml, Advantex BioReagents, Conroe, Tex.) or anti-Stat5ab mAb (1:250; BD Biosciences, San Jose, Calif.), anti-human Abl mAb (Calbiochem).
Exponentially growing K562 cells were treated with NBPP for 3 h or 6 h after which the cells were harvested. Exponentially growing K562 cells or imatinib-resistant K562 cells were treated with NBPP for 6 h or 16 h after which the cells were harvested. Cell pellets were solubilized in lysis buffer [10 mM Tris-HCl (pH 7.6), 5 mM EDTA, 50 mM sodium chloride, 30 mM sodium pyrophosphate, 50 mM sodium fluoride, 1 mM sodium orthovanadate, 1% Triton X-100, 1 mM phenylmethylsulfonyl fluoride, 5 μg/ml aprotinin, 1 μg/ml pepstatin A, and 2 μg/ml leupeptin], rotated end-over-end at 4° C. for 60 min, and insoluble material was pelleted at 12,000×g for 30 min at 4° C. The protein concentrations of clarified cell lysates were determined by simplified Bradford method (Bio-Rad Laboratories, Hercules, Calif.). […]

Structure (SMILES) | effect on phosphorylation of Stat5 (K562, 5 μM, 3 h) | effect on phosphorylation of Stat5 (K562, indicated concentrations, 3 or 6 hours)
OC[C@H]1O[C@@H](n2cnc3c(N4CCc5ccccc5C4)ncnc32)[C@H](O)[C@@H]1O [Compound 1, (2R,3R,4S,5R)-2-(6-(3,4-Dihydroisoquinolin-2(1H)-yl)-9H-purin-9-yl)-5-(hydroxymethyl)tetrahydrofuran-3,4-diol] | block phosphorylation of Stat5 | –
OC[C@H]1O[C@@H](n2ccc3c(NCc4ccccc4)ncnc32)[C@H](O)[C@@H]1O [NBPP, N-(phenylmethyl)-7-β-D-ribofuranosyl-7H-pyrrolo[2,3-d]pyrimidin-4-amine] | – | inhibited phosphorylation of Stat5
OC[C@H]1O[C@@H](n2cnc3c(NNc4ccccc4)ncnc32)[C@H](O)[C@@H]1O [Compound 2, (2R,3S,4R,5R)-2-(hydroxymethyl)-5-(6-(2-phenylhydrazinyl)-9H-purin-9-yl)tetrahydrofuran-3,4-diol] | block phosphorylation of Stat5 | –
